Results published in patent publication US8841413B2, “Antidiabetic compounds” (Cadila Healthcare Limited, priority 2006, dated 2014).
Read-outs that look alike come from different tables or passages of the source. One block for each molecule: values may come before it.

How the values were obtained:
[1] = Stability against liver microsomes; assay type: in vitro ADME, human; conditions: 2 μM, 37° C.
Protocol: (§1) Reactions were terminated by the addition of TFA/H2O (15 mL, 10% (v/v)). […] The column was equilibrated with TFA/H2O, at a flow rate of 1 mL/min. […] The absorbance was monitored at 206 nm using UV detector and peaks were collected manually prior to ESI-MS analysis.

[2] = Stability in human plasma; assay type: in vitro ADME; conditions: 2 μM, 37° C.
Protocol: as §1

[3] = Stability in simulated intestinal fluid; assay type: in vitro ADME; conditions: 2 μM, 37° C., pH 7.5
Protocol: as §1

[4] = Stability in simulated gastric fluid; assay type: in vitro ADME; conditions: 2 μM, 37° C., pH 1.5, pepsin
Protocol: as §1

[5] = target: T1, Human GLP-1 receptor (Homo sapiens, UniProt P43220); assay type: cell-based; conditions: for activity in human GLP-1 receptor assay (in words): in vitro, dipeptides, FIG. 3
T1 construct: The full-length cDNA was cloned in pcDNA3.1(+); expressed in transfected cells
T1 sequence (P43220 24-463): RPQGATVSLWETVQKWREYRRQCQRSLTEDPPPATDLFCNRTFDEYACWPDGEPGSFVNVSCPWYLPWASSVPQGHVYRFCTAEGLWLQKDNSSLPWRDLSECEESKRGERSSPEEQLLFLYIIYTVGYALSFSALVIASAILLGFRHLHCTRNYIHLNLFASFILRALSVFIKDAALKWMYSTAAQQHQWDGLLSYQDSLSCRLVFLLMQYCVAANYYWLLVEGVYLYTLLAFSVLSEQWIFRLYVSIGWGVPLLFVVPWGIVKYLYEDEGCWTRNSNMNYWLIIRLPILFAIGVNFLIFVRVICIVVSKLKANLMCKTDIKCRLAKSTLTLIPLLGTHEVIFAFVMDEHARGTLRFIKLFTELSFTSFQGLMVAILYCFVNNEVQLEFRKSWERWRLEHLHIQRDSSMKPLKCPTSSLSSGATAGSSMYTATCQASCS
Protocol: The novel peptidomimetics were screened for Human GLP-1 receptor (HGLP-1 R) agonist activity (in vitro), using the cAMP cell-based assay, in stably transfected CHO/human GLP1R cells. […] CHO cells were grown in Ham's F12 medium containing L-Glutamine (2 mM), HEPES (25 mM), NaHCO3 (1.1 g/L) and supplemented with NewBorn Calf Serum (NBCS; 10%), Penicillin (50 U/ml (v/v)) and Streptomycin (50 ug/ml (v/v)). Cells were split every 3 days 1:8.
The cDNA encoding the human GLP-1 receptor was isolated by RT-PCR according to standard protocol. The full-length cDNA was cloned in pcDNA3.1(+). […] Clones expressing the receptor were generated by G418 (800 μg/ml active, Sigma) selection. The stable clones were thereafter maintained at 500 ug/ml (G418). The selected clone was used between passages 9-25 for cAMP assays.
The trypsin was inactivated using Ham's F12 medium containing 10% NBCS and the cells were suspended in 2 ml of complete medium. […] The medium was aspirated off from the 12 well plate and the cells were washed once using Ham's F12 (plain). […] The cells were incubated with the test compounds for 30 min in humidified atmosphere and 37° C. After the incubation, the medium was removed and cells were washed once with plain Ham's F12. Subsequently, the cells were lysed by adding 500 ul of ice cold 0.1 N HCl to each well and shaking for 30 minutes at 200 rpm. […] The total cAMP was estimated from the sample according to the manufacturer's protocol using Cyclic AMP immunoassay kit (R&D systems, Minneapolis. MN). The remaining supernatant is used to determine the protein concentration using micro BCA (Sigma). Data is calculated as percent of control (Vehicle: water) and expressed as Mean±SD.

[6] = target: DPP IV (Homo sapiens, UniProt P27487); assay: Stability against DPP IV enzyme; assay type: in vitro ADME; conditions: 2 μM, 37° C.
DPP IV, sequence (P27487 whole entry, species assumed): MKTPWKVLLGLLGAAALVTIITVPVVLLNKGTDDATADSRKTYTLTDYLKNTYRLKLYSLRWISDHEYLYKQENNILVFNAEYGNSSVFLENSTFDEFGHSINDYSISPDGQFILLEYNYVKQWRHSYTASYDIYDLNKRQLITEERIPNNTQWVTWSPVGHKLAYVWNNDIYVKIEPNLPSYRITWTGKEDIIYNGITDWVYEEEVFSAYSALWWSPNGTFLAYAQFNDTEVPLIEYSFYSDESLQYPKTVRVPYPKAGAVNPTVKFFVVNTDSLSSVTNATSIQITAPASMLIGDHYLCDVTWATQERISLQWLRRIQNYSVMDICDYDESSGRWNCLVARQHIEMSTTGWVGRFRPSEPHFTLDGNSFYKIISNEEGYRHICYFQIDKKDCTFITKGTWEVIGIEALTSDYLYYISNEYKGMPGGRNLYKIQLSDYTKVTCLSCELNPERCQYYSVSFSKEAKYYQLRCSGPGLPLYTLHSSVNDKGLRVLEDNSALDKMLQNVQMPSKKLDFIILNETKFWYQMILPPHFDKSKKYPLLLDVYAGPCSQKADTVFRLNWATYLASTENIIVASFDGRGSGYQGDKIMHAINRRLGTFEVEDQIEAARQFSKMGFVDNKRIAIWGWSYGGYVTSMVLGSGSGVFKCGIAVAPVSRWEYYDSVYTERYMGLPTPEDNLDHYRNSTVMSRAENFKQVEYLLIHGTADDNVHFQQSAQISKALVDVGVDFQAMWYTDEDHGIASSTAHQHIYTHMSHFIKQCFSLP
Protocol: as §1

[7] = target: T2, human glucagon receptor (Homo sapiens, UniProt P47871); assay: In vitro human glucagon antagonist activity (inhibition of cAMP production), CHO/human glucagon R cells; assay type: cell-based; conditions: in vitro, FIG. 3 / FIG. 4
T2 construct: The full-length cDNA was cloned in pcDNA3.1(Invitrogen); expressed in transfected cells
T2 sequence (P47871 26-477): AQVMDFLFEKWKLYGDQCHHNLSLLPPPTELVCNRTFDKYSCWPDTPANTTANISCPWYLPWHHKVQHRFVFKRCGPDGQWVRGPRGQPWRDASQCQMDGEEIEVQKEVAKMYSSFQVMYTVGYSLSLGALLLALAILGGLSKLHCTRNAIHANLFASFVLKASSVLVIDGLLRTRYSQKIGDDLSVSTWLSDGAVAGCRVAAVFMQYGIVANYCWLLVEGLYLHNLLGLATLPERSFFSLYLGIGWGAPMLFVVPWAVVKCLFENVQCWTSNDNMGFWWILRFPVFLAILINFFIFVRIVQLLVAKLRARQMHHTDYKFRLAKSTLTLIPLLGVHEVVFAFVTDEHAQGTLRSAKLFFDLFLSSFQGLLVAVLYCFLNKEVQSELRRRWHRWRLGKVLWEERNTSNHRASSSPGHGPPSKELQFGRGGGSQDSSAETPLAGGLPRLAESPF
Protocol: CHO cells were grown in Ham's F12 medium containing L-Glutamine (2 mM), HEPES (25 mM), NaHCO3 (1.1 g/L) and supplemented with newborn Calf Serum (NBCS; 10%), Penicillin (50 U/ml (v/v)) and Streptomycin (50 ug/ml (v/v)). Cells were split every 3 days 1:8.
The full-length cDNA was cloned in pcDNA3.1(Invitrogen). […] Clones expressing the receptor were generated by G418 (800 μg/ml active, Sigma) selection. The stable clones were thereafter maintained at 500 ug/ml (G418). The selected clone was used between passages 9-25 for cAMP assays.
The trypsin was inactivated using Ham's F12 medium containing 10% NBCS and the cells were suspended in 2 ml of complete medium. […] The medium was aspirated off from the 12 well plate and the cells were washed once using Ham's F12 (plain). […] After the incubation; the medium was removed and cells were washed once with plain Ham's F12. Subsequently, the cells were lysed by adding 500 ul of ice cold 0.1 N HCl to each well and shaking for 30 minutes at 200 rpm. The cells were then scrapped, the lysate was collected in micro centrifuge tubes and centrifuged at 12000 rpm for 10 min to remove the debris. 300 ul of supernatant from each micro-centrifuge tube was then removed into a glass tube and dried under N2 for 30 min, for cAMP estimation. The total cAMP was estimated from the sample according to the manufacturer's protocol using Cyclic AMP immunoassay kit (R&D systems, Minneapolis: MN). The remaining supernatant is used to determine the protein concentration using micro BCA (Sigma). Data is calculated as percent of control (Vehicle: water) and expressed as Mean+SD.

[8] = system: C57BL/6J mice; assay: Acute single dose 120-min time-course experiment, in vivo glucose reduction in C57BL/6J mice; design: unit not given here; conditions: male C57BL/6J mice, Mean ± SEM
Protocol: All the animal experiments were carried out according to the internationally valid guidelines following approval by the ‘Zydus Research Center animal ethical committee’. […] Two days prior to the study, the animals were randomised and divided into 5 groups (n=6), based upon their fed glucose levels. On the day of experiment, food was withdrawn from all the cages, water was given ad-libitum and were kept for overnight fasting. Vehicle (normal saline)/test/standard compounds were administered intraperitoneally (i.p.) or orally, on a body weight basis. […] Blood samples were centrifuged and the separated serum was immediately subjected for the glucose estimation. Serum for insulin estimation was stored at −70° C. until used for the insulin estimation. The glucose estimation was carried out with DPEC-GOD/POD method (Ranbaxy Fine Chemicals Limited, Diagnostic division, India), using Spectramax-190, in 96-microwell plate reader (Molecular devices Corporation, Sunnyvale, Calif.). […] The AUC and BCAUC obtained from graphs were analyzed for one way ANOVA, followed by Dunnett's post test, using Graph Pad prism software. Furthermore, the insulin estimation was carried out using rat/mouse insulin ELISA kit (Linco research, Mo. USA).

half-life (t1/2) with liver microsomes [1]: (5) h
% degradation in 24 h when incubated with liver microsomes ([1]; 24 h): 31%
% degradation in 24 h when incubated with human plasma ([2]; 24 h): 00%
half-life ([2]; human, plasma, read-out: half-life (t1/2) in human plasma): > 24 h
% degradation in 24 h when incubated with simulated intestinal fluid ([3]; 24 h): 00%
half-life ([3]; simulated gi fluid, read-out: half-life (t1/2) in simulated intestinal fluid): > 24 h
% degradation in 24 h when incubated with simulated gastric fluid ([4]; 24 h): 00%
half-life ([4]; simulated gi fluid, read-out: half-life (t1/2) in simulated gastric fluid): > 24 h
Human GLP-1 R activity (cAMP release), % activity with respect to control ([5]; 1 nM test compound): 93 ± 0.10%
Human GLP-1 R activity (cAMP release), % activity with respect to control ([5]; 10 nM test compound): 99 ± 0.46%
Human GLP-1 R activity (cAMP release), % activity with respect to control ([5]; 100 nM test compound): 99 ± 0.41%
Human GLP-1 R activity (cAMP release), % activity with respect to control ([5]; 1 μM test compound): 99 ± 0.66%
Human GLP-1 R activity (cAMP release), % activity with respect to control ([5]; 10 μM test compound): 99 ± 0.03%
% degradation in 24 h when incubated with DPP-IV enzyme ([6]; 24 h): 00%
half-life ([6]; read-out: half-life (t1/2) with DPP-IV enzyme): > 24 h
Molecule: CCc1cc(OC)ccc1-c1ccc(CC(NC(=O)[C@H](CC(=O)O)NC(=O)[C@H](CO)NC(=O)[C@@H](NC(=O)C(C)(Cc2ccccc2F)NC(=O)[C@@H](NC(=O)CNC(=O)[C@H](CCC(N)=O)NC(=O)C(C)(C)NC(=O)[C@@H](N)Cc2c[nH]cn2)[C@@H](C)O)[C@@H](C)O)C(=O)NC(Cc2ccc(-c3ccccc3F)cc2)C(N)=O)cc1 (single isomer, unassigned) [compound 31]

activity in human GLP-1 receptor assay (in words) [5]: antagonistic activity
activity in human Glucagon receptor assay (in words) [7]: antagonistic activity
Molecule: Bip(OMe)-Bip(2Me)

activity in human GLP-1 receptor assay (in words) [5]: antagonistic activity
activity in human Glucagon receptor assay (in words) [7]: antagonistic activity
Molecule: Bip(OMe)-Bip(2F)

activity in human GLP-1 receptor assay (in words) [5]: antagonistic activity
activity in human Glucagon receptor assay (in words) [7]: antagonistic activity
Molecule: Bip(OMe)-Bip(Pyr)

The next lines start with the molecule.

Molecule: CCc1cc(OC)ccc1-c1ccc(CC(NC(=O)[C@H](CC(=O)O)NC(=O)[C@H](CO)NC(=O)[C@@H](NC(=O)[C@H](Cc2ccccc2)NC(=O)[C@@H](NC(=O)CNC(=O)[C@H](CCC(N)=O)NC(=O)C(C)(C)NC(=O)[C@@H](N)Cc2c[nH]cn2)[C@@H](C)O)[C@@H](C)O)C(=O)NC(Cc2ccc(-c3ccccc3C(F)(F)F)cc2)C(N)=O)cc1 (single isomer, unassigned) [Seq. ID. No. 16, H-Aib-QGTFTSD-Bip(OMe)-Bip(2CF3)]
blood glucose level ([8]; 30 nM/kg, i.p, 0 min): 183 ± 4.9
blood glucose level ([8]; 30 nM/kg, i.p, 30 min): 117 ± 2.5
blood glucose level ([8]; 30 nM/kg, i.p, 60 min): 116 ± 2.3
blood glucose level ([8]; 30 nM/kg, i.p, 120 min): 119 ± 2.0

Molecule: Bip(OMe)-Bip(2CF3)
activity in human GLP-1 receptor assay (in words) [5]: antagonistic activity
activity in human Glucagon receptor assay (in words) [7]: antagonistic activity

Molecule: CCc1cc(OC)ccc1-c1ccc(CC(NC(=O)[C@H](CC(=O)O)NC(=O)[C@H](CO)NC(=O)[C@@H](NC(=O)C(C)(Cc2ccccc2F)NC(=O)[C@@H](NC(=O)CNC(=O)[C@H](CCC(N)=O)NC(=O)[C@H](CO)NC(=O)[C@@H](N)Cc2c[nH]cn2)[C@@H](C)O)[C@@H](C)O)C(=O)NC(Cc2ccc(-c3ccccc3F)cc2)C(N)=O)cc1 (single isomer, unassigned) [Seq. ID. No. 23, HSQGT-(α-Me-2F-Phe)-TSD-Bip(OMe)-Bip(2F)]
blood glucose level ([8]; 20 nM/kg, i.p, 0 min): 180 ± 3.1
blood glucose level ([8]; 20 nM/kg, i.p, 30 min): 122 ± 3.9
blood glucose level ([8]; 20 nM/kg, i.p, 60 min): 129 ± 2.2
blood glucose level ([8]; 20 nM/kg, i.p, 120 min): 140 ± 2.9

Molecule: CCc1cc(OC)ccc1-c1ccc(CC(NC(=O)[C@H](CC(=O)O)NC(=O)[C@H](CO)NC(=O)[C@@H](NC(=O)C(C)(Cc2ccccc2F)NC(=O)[C@@H](NC(=O)CNC(=O)[C@H](CCC(N)=O)NC(=O)C(C)(C)NC(=O)[C@@H](N)Cc2c[nH]cn2)[C@@H](C)O)[C@@H](C)O)C(=O)NC(Cc2ccc(-c3ccccc3C)cc2)C(N)=O)cc1 (single isomer, unassigned) [Seq. ID. No. 29, H-Aib-QGT-(α-Me-2F-Phe)-TSD-Bip(OMe)-Bip(2Me)]
blood glucose level ([8]; 10 nM/kg, i.p, 0 min): 180 ± 2.5
blood glucose level ([8]; 10 nM/kg, i.p, 30 min): 110 ± 2.6
blood glucose level ([8]; 10 nM/kg, i.p, 60 min): 111 ± 3.2
blood glucose level ([8]; 10 nM/kg, i.p, 120 min): 112 ± 2.3
blood glucose level ([8]; 2 μM/kg, oral, 0 min): 184 ± 2.5
blood glucose level ([8]; 2 μM/kg, oral, 30 min): 115 ± 3.6
blood glucose level ([8]; 2 μM/kg, oral, 60 min): 113 ± 4.2
blood glucose level ([8]; 2 μM/kg, oral, 120 min): 110 ± 2.4

Molecule: CCc1cc(OC)ccc1-c1ccc(CC(NC(=O)[C@H](CC(=O)O)NC(=O)[C@H](CO)NC(=O)[C@@H](NC(=O)C(C)(Cc2ccccc2F)NC(=O)[C@@H](NC(=O)CNC(=O)[C@H](CCC(N)=O)NC(=O)C2(NC(=O)[C@@H](N)Cc3c[nH]cn3)CC2)[C@@H](C)O)[C@@H](C)O)C(=O)NC(Cc2ccc(-c3ccccc3F)cc2)C(N)=O)cc1 (single isomer, unassigned) [Seq. ID. No. 35, H-(ACP)-QGT-(α-Me-2F-Phe)-TSD-Bip(OMe)-Bip(2F)]
blood glucose level ([8]; 10 nM/kg, i.p, 0 min): 182 ± 4.1
blood glucose level ([8]; 10 nM/kg, i.p, 30 min): 112 ± 3.1
blood glucose level ([8]; 10 nM/kg, i.p, 60 min): 113 ± 2.6
blood glucose level ([8]; 10 nM/kg, i.p, 120 min): 111 ± 1.8
blood glucose level ([8]; 2 μM/kg, oral, 0 min): 183 ± 2.1
blood glucose level ([8]; 2 μM/kg, oral, 30 min): 118 ± 3.4
blood glucose level ([8]; 2 μM/kg, oral, 60 min): 113 ± 4.6
blood glucose level ([8]; 2 μM/kg, oral, 120 min): 111 ± 2.8
